Test results as given in PubChem BioAssay (NCI).
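Compound exposure: 48 hours, 5 concentrations, 96-well plates. Definition used: TGI = concentration required for complete inhibition of growth.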

Experiments:
Experiment in all cases: NCI tumour cell line growth inhibition, 48 h
786-0 renal = tested on: 786-0 renal
A498 renal = tested on: A498 renal
A549 NSCLC = tested on: A549 NSCLC
ACHN renal = tested on: ACHN renal
BT-549 breast = tested on: BT-549 breast
CCRF-CEM leukemia = tested on: CCRF-CEM leukemia
COLO 205 colon = tested on: COLO 205 colon
DU-145 prostate = tested on: DU-145 prostate
EKVX NSCLC = tested on: EKVX NSCLC
HCC-2998 colon = tested on: HCC-2998 colon
HCT-116 colon = tested on: HCT-116 colon
HCT-15 colon = tested on: HCT-15 colon
HL-60(TB) leukemia = tested on: HL-60(TB) leukemia
HOP-62 NSCLC = tested on: HOP-62 NSCLC
HOP-92 NSCLC = tested on: HOP-92 NSCLC
HT29 colon = tested on: HT29 colon
IGROV1 ovarian = tested on: IGROV1 ovarian
K-562 leukemia = tested on: K-562 leukemia
M14 melanoma = tested on: M14 melanoma
MALME-3M melanoma = tested on: MALME-3M melanoma
MCF7 breast = tested on: MCF7 breast
MDA-MB-231 breast = tested on: MDA-MB-231 breast
MDA-MB-435 = tested on: MDA-MB-435
MDA-N = tested on: MDA-N
MOLT-4 leukemia = tested on: MOLT-4 leukemia
NCI-H226 lung = tested on: NCI-H226 lung
NCI-H23 lung = tested on: NCI-H23 lung
NCI-H460 lung = tested on: NCI-H460 lung
NCI/ADR-RES ovarian = tested on: NCI/ADR-RES ovarian
OVCAR-3 ovarian = tested on: OVCAR-3 ovarian
OVCAR-4 ovarian = tested on: OVCAR-4 ovarian
OVCAR-5 ovarian = tested on: OVCAR-5 ovarian
OVCAR-8 ovarian = tested on: OVCAR-8 ovarian
RPMI-8226 leukemia = tested on: RPMI-8226 leukemia
SF-268 CNS = tested on: SF-268 CNS
SF-295 CNS = tested on: SF-295 CNS
SK-MEL-28 melanoma = tested on: SK-MEL-28 melanoma
SK-MEL-5 melanoma = tested on: SK-MEL-5 melanoma
SK-OV-3 ovarian = tested on: SK-OV-3 ovarian
SN12C renal = tested on: SN12C renal
SNB-19 CNS = tested on: SNB-19 CNS
SNB-75 CNS = tested on: SNB-75 CNS
SR leukemia = tested on: SR leukemia
SW-620 colon = tested on: SW-620 colon
T-47D breast = tested on: T-47D breast
TK-10 renal = tested on: TK-10 renal
U251 CNS = tested on: U251 CNS
UACC-257 melanoma = tested on: UACC-257 melanoma
UACC-62 melanoma = tested on: UACC-62 melanoma
UO-31 renal = tested on: UO-31 renal
CAKI-1 renal = tested on: CAKI-1 renal
KM12 colon = tested on: KM12 colon
LOX IMVI melanoma = tested on: LOX IMVI melanoma
PC-3 prostate = tested on: PC-3 prostate
RXF 393 renal = tested on: RXF 393 renal
SF-539 CNS = tested on: SF-539 CNS
SK-MEL-2 melanoma = tested on: SK-MEL-2 melanoma

O=S(=O)(c1ccccc1)C1(CCC2OCCO2)C=CC2(CC1)OCCO2 (configuration not stated)
TGI (786-0 renal): > 100 µM
TGI (A498 renal): > 100 µM
TGI (A549 NSCLC): > 100 µM
TGI (ACHN renal): > 100 µM
TGI (BT-549 breast): > 100 µM
TGI (CCRF-CEM leukemia): > 100 µM
TGI (COLO 205 colon): > 100 µM
TGI (DU-145 prostate): > 100 µM
TGI (EKVX NSCLC): > 100 µM
TGI (HCC-2998 colon): > 100 µM
TGI (HCT-116 colon): > 100 µM
TGI (HCT-15 colon): > 100 µM
TGI (HL-60(TB) leukemia): > 100 µM
TGI (HOP-62 NSCLC): > 100 µM
TGI (HOP-92 NSCLC): > 100 µM
TGI (HT29 colon): > 100 µM
TGI (IGROV1 ovarian): > 100 µM
TGI (K-562 leukemia): > 100 µM
TGI (M14 melanoma): > 100 µM
TGI (MALME-3M melanoma): > 100 µM
TGI (MCF7 breast): > 100 µM
TGI (MDA-MB-231 breast): > 100 µM
TGI (MDA-MB-435): > 100 µM
TGI (MDA-N): > 100 µM
TGI (MOLT-4 leukemia): > 100 µM
TGI (NCI-H226 lung): > 100 µM
TGI (NCI-H23 lung): > 100 µM
TGI (NCI-H460 lung): > 100 µM
TGI (NCI/ADR-RES ovarian): > 100 µM
TGI (OVCAR-3 ovarian): > 100 µM
TGI (OVCAR-4 ovarian): > 100 µM
TGI (OVCAR-5 ovarian): > 100 µM
TGI (OVCAR-8 ovarian): > 100 µM
TGI (RPMI-8226 leukemia): > 100 µM
TGI (SF-268 CNS): > 100 µM
TGI (SF-295 CNS): > 100 µM
TGI (SK-MEL-28 melanoma): > 100 µM
TGI (SK-MEL-5 melanoma): > 100 µM
TGI (SK-OV-3 ovarian): > 100 µM
TGI (SN12C renal): > 100 µM
TGI (SNB-19 CNS): > 100 µM
TGI (SNB-75 CNS): > 100 µM
TGI (SR leukemia): > 100 µM
TGI (SW-620 colon): > 100 µM
TGI (T-47D breast): > 100 µM
TGI (TK-10 renal): > 100 µM
TGI (U251 CNS): > 100 µM
TGI (UACC-257 melanoma): > 100 µM
TGI (UACC-62 melanoma): > 100 µM
TGI (UO-31 renal): > 100 µM

CNc1nnc(CNc2ccc(-c3nnc(NC)n3N)cc2)n1N
TGI (786-0 renal): > 100 µM
TGI (A498 renal): > 100 µM
TGI (A549 NSCLC): > 100 µM
TGI (ACHN renal): > 100 µM
TGI (BT-549 breast): > 100 µM
TGI (CAKI-1 renal): > 100 µM
TGI (CCRF-CEM leukemia): > 100 µM
TGI (COLO 205 colon): > 100 µM
TGI (DU-145 prostate): > 100 µM
TGI (EKVX NSCLC): > 100 µM
TGI (HCC-2998 colon): 93.8 µM
TGI (HCT-116 colon): > 100 µM
TGI (HCT-15 colon): > 100 µM
TGI (HL-60(TB) leukemia): > 100 µM
TGI (HOP-62 NSCLC): > 100 µM
TGI (HOP-92 NSCLC): > 100 µM
TGI (HT29 colon): > 100 µM
TGI (IGROV1 ovarian): > 100 µM
TGI (K-562 leukemia): > 100 µM
TGI (KM12 colon): > 100 µM
TGI (LOX IMVI melanoma): > 100 µM
TGI (M14 melanoma): > 100 µM
TGI (MCF7 breast): > 100 µM
TGI (MDA-MB-231 breast): > 100 µM
TGI (MDA-MB-435): > 100 µM
TGI (MDA-N): > 100 µM
TGI (MOLT-4 leukemia): > 100 µM
TGI (NCI-H226 lung): > 100 µM
TGI (NCI-H23 lung): > 100 µM
TGI (NCI-H460 lung): > 100 µM
TGI (NCI/ADR-RES ovarian): > 100 µM
TGI (OVCAR-3 ovarian): > 100 µM
TGI (OVCAR-4 ovarian): > 100 µM
TGI (OVCAR-5 ovarian): > 100 µM
TGI (OVCAR-8 ovarian): > 100 µM
TGI (PC-3 prostate): > 100 µM
TGI (RXF 393 renal): > 100 µM
TGI (SF-268 CNS): > 100 µM
TGI (SF-295 CNS): > 100 µM
TGI (SF-539 CNS): > 100 µM
TGI (SK-MEL-2 melanoma): > 100 µM
TGI (SK-MEL-28 melanoma): > 100 µM
TGI (SK-MEL-5 melanoma): > 100 µM
TGI (SK-OV-3 ovarian): > 100 µM
TGI (SN12C renal): > 100 µM
TGI (SNB-19 CNS): > 100 µM
TGI (SNB-75 CNS): > 100 µM
TGI (SW-620 colon): > 100 µM
TGI (TK-10 renal): > 100 µM
TGI (U251 CNS): > 100 µM
TGI (UACC-257 melanoma): > 100 µM
TGI (UO-31 renal): > 100 µM
